Experimental data reported in article PMC7026418, “The kinase polypharmacology landscape of clinical PARP inhibitors” (Scientific Reports, 2020).
Where two headings read alike, the source gives them in different places.

Key:
Assay in all cases: biochemical
Design in all cases: DiscoveRx KINOMEscan active site-directed competition binding; percent of control kinase bound to immobilised ligand
BRAF = BRAF (Homo sapiens, UniProt P15056)
PRKG1 = molecular target: T1, PRKG1 (Homo sapiens, UniProt Q13976)
T1 sequence (Q13976 1-671): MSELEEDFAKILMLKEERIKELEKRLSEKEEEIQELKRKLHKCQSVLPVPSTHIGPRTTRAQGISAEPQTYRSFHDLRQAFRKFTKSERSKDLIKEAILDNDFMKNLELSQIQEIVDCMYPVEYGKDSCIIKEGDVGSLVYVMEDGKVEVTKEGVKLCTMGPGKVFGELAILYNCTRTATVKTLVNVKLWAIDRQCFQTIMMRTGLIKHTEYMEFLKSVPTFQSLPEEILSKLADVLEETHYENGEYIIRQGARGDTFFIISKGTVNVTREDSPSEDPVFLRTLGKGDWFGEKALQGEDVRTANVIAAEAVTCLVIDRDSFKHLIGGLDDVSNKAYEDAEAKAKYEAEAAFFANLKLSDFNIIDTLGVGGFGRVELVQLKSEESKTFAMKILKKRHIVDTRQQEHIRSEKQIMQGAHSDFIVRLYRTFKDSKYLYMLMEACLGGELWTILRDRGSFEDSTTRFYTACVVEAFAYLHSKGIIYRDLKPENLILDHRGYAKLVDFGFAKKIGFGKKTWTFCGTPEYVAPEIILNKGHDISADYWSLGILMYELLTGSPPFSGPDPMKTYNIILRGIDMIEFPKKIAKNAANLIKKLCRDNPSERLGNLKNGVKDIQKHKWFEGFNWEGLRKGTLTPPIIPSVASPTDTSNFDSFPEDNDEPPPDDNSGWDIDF

CDK5 = CDK5 (Homo sapiens, UniProt Q00535)
DCAMKL2 = molecular target: T2, DCAMKL2 (Homo sapiens, UniProt Q8N568)
T2 construct: gene DCLK2
T2 sequence (Q8N568 1-766): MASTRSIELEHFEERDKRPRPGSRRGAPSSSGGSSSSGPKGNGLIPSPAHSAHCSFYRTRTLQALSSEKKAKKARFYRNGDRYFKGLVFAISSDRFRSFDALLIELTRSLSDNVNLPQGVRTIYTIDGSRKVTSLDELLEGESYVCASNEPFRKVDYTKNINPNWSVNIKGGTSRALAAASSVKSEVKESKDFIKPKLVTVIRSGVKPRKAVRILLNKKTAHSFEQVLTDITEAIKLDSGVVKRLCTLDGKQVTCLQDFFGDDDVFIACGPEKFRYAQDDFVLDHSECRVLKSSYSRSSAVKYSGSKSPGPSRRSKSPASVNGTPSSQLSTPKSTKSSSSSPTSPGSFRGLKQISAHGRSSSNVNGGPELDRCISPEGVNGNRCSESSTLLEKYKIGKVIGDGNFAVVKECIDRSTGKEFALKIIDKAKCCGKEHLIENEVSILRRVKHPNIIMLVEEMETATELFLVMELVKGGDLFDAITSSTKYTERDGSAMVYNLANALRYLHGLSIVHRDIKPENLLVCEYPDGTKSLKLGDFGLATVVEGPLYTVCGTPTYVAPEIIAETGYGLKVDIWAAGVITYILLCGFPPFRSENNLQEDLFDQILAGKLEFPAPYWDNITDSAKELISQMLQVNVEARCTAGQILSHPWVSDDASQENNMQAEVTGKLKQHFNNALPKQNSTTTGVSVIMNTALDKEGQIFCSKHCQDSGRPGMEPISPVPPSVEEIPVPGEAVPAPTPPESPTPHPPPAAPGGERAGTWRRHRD

EPHA2 = EPHA2 (Homo sapiens, UniProt P29317)
KIT(V559D,V654A) = KIT(V559D,V654A) (Homo sapiens, UniProt P10721, V559D/V654A)
BRK = molecular target: T3, BRK (Homo sapiens, UniProt Q13882)
T3 construct: gene PTK6

PRP4 = molecular target: T4, PRP4 (Homo sapiens, UniProt Q13523)
T4 construct: gene PRPF4B

[1] = read-out: Niraparib (MK-4827) / %Ctrl @ 10000nM
[2] = read-out: Olaparib / %Ctrl @ 10000nM
[3] = read-out: Rucaparib / %Ctrl @ 10000nM, binding competition, % of control
[4] = read-out: Talazoparib (BMN 673) / %Ctrl @ 10000nM

Sequence of EPHA2 (P29317 whole entry): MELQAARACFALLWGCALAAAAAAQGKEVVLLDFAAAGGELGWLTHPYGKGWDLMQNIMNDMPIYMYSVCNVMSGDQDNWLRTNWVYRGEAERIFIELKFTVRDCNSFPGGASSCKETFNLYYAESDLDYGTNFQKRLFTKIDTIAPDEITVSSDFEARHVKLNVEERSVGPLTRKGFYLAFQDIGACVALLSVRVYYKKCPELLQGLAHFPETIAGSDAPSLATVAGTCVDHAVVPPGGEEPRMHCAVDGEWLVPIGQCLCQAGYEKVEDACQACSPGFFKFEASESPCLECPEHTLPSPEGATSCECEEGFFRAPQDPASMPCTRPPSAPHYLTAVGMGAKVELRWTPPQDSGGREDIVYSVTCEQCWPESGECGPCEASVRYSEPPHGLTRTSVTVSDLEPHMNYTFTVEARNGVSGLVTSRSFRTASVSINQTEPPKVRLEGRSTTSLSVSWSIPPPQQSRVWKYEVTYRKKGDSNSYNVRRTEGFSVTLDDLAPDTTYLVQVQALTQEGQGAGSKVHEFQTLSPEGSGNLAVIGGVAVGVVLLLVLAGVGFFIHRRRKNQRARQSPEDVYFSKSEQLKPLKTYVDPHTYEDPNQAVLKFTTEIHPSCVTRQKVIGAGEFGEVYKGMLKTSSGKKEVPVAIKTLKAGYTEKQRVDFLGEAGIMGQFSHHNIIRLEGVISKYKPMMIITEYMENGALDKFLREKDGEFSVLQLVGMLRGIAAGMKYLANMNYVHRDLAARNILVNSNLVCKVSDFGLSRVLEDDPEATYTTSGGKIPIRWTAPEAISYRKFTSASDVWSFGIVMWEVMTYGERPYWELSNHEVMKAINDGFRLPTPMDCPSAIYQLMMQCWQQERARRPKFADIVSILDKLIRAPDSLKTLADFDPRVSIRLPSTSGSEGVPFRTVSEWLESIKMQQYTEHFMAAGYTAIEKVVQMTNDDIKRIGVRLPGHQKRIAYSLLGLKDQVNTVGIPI
T4 sequence (Q13523 whole entry): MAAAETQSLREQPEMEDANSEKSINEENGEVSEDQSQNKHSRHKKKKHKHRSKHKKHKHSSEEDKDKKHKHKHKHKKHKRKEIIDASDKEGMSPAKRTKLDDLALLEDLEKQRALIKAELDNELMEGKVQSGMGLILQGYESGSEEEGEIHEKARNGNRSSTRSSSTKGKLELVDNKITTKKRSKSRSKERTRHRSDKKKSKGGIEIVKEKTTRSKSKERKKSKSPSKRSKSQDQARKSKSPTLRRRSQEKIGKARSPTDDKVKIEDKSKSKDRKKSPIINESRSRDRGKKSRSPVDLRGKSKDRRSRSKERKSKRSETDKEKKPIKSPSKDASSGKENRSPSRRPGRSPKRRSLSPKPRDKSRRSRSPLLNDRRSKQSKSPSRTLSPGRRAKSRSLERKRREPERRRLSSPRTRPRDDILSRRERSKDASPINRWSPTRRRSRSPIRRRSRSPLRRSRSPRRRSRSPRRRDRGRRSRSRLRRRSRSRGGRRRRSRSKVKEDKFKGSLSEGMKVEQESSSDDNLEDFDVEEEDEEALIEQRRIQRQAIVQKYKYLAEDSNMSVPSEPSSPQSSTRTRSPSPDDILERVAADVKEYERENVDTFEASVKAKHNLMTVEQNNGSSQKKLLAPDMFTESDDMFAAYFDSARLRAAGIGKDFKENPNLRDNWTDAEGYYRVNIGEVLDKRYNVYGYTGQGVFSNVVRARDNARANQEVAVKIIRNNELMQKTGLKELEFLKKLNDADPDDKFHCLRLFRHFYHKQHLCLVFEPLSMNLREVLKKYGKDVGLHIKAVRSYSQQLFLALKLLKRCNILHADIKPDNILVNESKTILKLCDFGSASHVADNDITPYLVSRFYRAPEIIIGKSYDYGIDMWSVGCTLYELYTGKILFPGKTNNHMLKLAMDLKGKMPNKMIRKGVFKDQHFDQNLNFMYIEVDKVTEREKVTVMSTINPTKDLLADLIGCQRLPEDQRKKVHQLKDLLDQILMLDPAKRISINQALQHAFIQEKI
Sequence of CDK5 (Q00535 whole entry): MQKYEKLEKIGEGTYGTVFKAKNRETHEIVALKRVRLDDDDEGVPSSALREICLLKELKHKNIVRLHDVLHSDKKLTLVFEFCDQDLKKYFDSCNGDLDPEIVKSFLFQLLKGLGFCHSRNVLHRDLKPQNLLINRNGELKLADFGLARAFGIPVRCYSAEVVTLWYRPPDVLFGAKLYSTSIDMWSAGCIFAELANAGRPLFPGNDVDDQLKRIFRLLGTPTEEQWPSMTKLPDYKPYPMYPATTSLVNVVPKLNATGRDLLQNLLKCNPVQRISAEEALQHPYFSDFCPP
Sequence of KIT(V559D,V654A) (P10721 whole entry V559D/V654A): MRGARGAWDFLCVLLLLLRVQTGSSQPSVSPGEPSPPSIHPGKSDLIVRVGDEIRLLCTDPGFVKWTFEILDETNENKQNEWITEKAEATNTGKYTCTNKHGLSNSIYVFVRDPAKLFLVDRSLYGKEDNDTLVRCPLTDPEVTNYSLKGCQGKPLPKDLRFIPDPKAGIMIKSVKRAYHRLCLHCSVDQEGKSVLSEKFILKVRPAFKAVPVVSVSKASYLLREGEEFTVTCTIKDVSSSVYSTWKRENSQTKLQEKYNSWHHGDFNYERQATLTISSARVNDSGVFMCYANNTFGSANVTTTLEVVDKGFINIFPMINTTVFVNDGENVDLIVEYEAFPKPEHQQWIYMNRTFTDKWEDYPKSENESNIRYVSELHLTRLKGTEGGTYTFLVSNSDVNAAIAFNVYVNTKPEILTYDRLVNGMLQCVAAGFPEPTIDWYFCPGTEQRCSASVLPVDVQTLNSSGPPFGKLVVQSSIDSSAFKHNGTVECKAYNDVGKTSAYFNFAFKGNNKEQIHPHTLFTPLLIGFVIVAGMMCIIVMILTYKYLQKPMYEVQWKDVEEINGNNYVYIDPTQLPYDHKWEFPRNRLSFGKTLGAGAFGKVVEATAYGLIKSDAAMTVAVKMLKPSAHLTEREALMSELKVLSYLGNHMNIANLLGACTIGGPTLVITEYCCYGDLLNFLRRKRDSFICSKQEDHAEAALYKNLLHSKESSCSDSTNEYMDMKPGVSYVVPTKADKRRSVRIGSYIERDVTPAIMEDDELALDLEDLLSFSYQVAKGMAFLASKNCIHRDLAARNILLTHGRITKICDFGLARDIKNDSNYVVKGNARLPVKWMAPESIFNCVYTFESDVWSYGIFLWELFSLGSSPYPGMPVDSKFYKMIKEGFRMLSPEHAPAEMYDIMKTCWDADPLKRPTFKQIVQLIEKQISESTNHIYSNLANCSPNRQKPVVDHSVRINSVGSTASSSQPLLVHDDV
Sequence of BRAF (P15056 whole entry): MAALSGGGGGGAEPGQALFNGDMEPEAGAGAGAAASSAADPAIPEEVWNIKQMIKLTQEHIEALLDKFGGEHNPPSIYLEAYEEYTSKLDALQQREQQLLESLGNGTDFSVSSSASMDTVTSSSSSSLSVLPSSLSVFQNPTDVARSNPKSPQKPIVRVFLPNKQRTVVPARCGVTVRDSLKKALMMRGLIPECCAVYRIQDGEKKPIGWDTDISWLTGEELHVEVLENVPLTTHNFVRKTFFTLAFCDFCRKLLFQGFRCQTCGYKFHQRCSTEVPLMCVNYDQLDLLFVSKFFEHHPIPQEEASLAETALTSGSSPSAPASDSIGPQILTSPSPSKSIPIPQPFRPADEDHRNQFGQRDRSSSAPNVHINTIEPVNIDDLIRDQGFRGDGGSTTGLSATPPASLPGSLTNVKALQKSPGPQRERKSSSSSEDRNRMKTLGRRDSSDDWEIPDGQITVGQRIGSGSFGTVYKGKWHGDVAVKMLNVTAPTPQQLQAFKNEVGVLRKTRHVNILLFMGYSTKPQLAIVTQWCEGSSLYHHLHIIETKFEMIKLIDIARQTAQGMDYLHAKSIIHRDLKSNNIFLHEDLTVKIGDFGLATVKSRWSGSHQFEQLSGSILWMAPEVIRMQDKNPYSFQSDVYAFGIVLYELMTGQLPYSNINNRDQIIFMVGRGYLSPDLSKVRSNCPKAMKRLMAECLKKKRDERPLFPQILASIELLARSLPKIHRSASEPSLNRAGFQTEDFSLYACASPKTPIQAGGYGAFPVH
T3 sequence (Q13882 whole entry): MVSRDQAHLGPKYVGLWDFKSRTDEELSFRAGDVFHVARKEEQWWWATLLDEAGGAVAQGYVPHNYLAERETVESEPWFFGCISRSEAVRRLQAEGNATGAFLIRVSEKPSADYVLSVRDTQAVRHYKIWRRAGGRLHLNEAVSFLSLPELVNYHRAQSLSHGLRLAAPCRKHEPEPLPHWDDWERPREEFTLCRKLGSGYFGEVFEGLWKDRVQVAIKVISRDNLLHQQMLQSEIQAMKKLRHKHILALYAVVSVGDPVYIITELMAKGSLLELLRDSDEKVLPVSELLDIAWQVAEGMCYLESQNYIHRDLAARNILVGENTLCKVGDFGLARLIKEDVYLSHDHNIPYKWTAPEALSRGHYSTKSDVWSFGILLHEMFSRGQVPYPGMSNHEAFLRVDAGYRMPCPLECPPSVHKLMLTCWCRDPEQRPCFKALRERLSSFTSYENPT

NC(=O)c1cccc2cn(-c3ccc([C@@H]4CCCNC4)cc3)nc12 [Niraparib]
percent of control binding at 10 µM (BRAF; [1]): 95%
percent of control binding at 10 µM (PRKG1; [1]): 100%
percent of control binding at 10 µM (CDK5; [1]): 90%
percent of control binding at 10 µM (DCAMKL2; [1]): 83%
percent of control binding at 10 µM (EPHA2; [1]): 94%
percent of control binding at 10 µM (KIT(V559D,V654A); [1]): 90%
percent of control binding at 10 µM (BRK; [1]): 91%
percent of control binding at 10 µM (PRP4; [1]): 97%

O=C(c1cc(Cc2n[nH]c(=O)c3ccccc23)ccc1F)N1CCN(C(=O)C2CC2)CC1 [Olaparib]
percent of control binding at 10 µM (BRAF; [2]): 76%
percent of control binding at 10 µM (PRKG1; [2]): 100%
percent of control binding at 10 µM (CDK5; [2]): 95%
percent of control binding at 10 µM (DCAMKL2; [2]): 100%
percent of control binding at 10 µM (EPHA2; [2]): 97%
percent of control binding at 10 µM (KIT(V559D,V654A); [2]): 95%
percent of control binding at 10 µM (BRK; [2]): 88%
percent of control binding at 10 µM (PRP4; [2]): 82%

CNCc1ccc(-c2[nH]c3cc(F)cc4c3c2CCNC4=O)cc1 [Rucaparib]
percent of control binding at 10 µM (BRAF; [3]): 66%
percent of control binding at 10 µM (PRKG1; [3]): 91%
percent of control binding at 10 µM (CDK5; [3]): 88%
percent of control binding at 10 µM (DCAMKL2; [3]): 87%
percent of control binding at 10 µM (EPHA2; [3]): 100%
percent of control binding at 10 µM (KIT(V559D,V654A); [3]): 92%
percent of control binding at 10 µM (BRK; [3]): 99%
percent of control binding at 10 µM (PRP4; [3]): 85%

Cn1ncnc1[C@H]1c2n[nH]c(=O)c3cc(F)cc(c23)N[C@@H]1c1ccc(F)cc1 [Talazoparib]
percent of control binding at 10 µM (BRAF; [4]): 67%
percent of control binding at 10 µM (PRKG1; [4]): 57%
percent of control binding at 10 µM (CDK5; [4]): 98%
percent of control binding at 10 µM (DCAMKL2; [4]): 100%
percent of control binding at 10 µM (EPHA2; [4]): 100%
percent of control binding at 10 µM (KIT(V559D,V654A); [4]): 96%
percent of control binding at 10 µM (BRK; [4]): 100%
percent of control binding at 10 µM (PRP4; [4]): 100%
